Data taken from patent publication US10633389B2, “CARM1 inhibitors and uses thereof” (Epizyme, Inc., priority 2013, dated 2020).
pIC50: −log10 of the molar value.

Tested on: asymmetric di-methyl PABP1 in RKO cells
Assay: RKO methylation assay, In Cell Western (ICW) for asymmetric di-methyl PABP1
Type: cell-based
Settings: Homo sapiens, RKO, Cellular potencies, ICW PABP1me2a
Procedure, shortened: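 RKO cells treated with compound for 48 h at 37 °C, then fixed, permeabilized and immunostained for asymmetric di-methyl PABP1, with DRAQ5 as DNA stain. Infrared 700/800 nm signal ratio normalized to DMSO and 20 μM reference-compound controls; IC50 from triplicate wells.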

Row | pIC50 | Structure (SMILES)
1 | > 5.30 | CNCC(O)COc1cccc(-c2nc(-c3c(C)noc3C)cc(N3CCN(C(=O)C4CC4)CC3)n2)c1 (stereo not drawn) [Example 133-1a]
2 | 5.00 to 5.30 | CNCC(O)COc1cccc(-c2nc(NCC3CCOCC3)cc(-c3c(C)noc3C)n2)c1 (stereo not drawn) [Example 78-1a]
3 | 4.70 to 5.00 | CCOC(=O)N1CC(Nc2nc(-c3cccc(OCC(O)CNC)c3)nc(-c3c(C)noc3C)c2C)C1 (stereo not drawn) [Example 238-1a]
4 | > 5.30 | CNCC(O)COc1cccc(-c2nc(N[C@@H]3CCN(C4CC4)C[C@H]3F)c(C)c(-c3c(C)noc3C)n2)c1 (stereo partly drawn) [Example 261-1a]
5 | 4.70 to 5.00 | CNCC(O)COc1cccc(-c2nc(N(C)C3CCOCC3)cc(N3C[C@@H]4C[C@H]3CN4C)n2)c1 (stereo partly drawn) [Example 543-1a]
6 | > 5.30 | CNC[C@@H](O)COc1ccc(Cl)c(-c2nc(-c3c(C)noc3C)c(C)c(N3CC4(CCOCC4)C3)n2)c1 [Example 118-3]
7 | 4.70 to 5.00 | CNCC(O)COc1cccc(-c2nc(-c3cnc4nccn4c3)cc(N(C)C3CCOCC3)n2)c1 (stereo not drawn) [Example 620-1a]
8 | 5.00 to 5.30 | CNCC(O)COc1cccc(-c2nc(NC3CCOC3)c(C)c(N3CCN4C(=O)OC[C@@H]4C3)n2)c1 (stereo partly drawn) [Example 454-1a]
9 | > 5.30 | CNC[C@H](O)COc1ccc(Cl)c(-c2nc(-c3c(C)noc3C)c(C)c(N3Cc4ccncc4C3)n2)c1 [Example 90-3]
10 | > 5.30 | CNC[C@@H](O)COc1ccc(Cl)c(-c2nc(N[C@H]3C[C@H](OC)C3)c(C)c(-c3c(C)noc3C)n2)c1 [Example 143-3]
11 | > 5.30 | CNC[C@@H](O)COc1ccc(Cl)c(-c2nc(-c3c(C)noc3C)c(Cl)c(N3Cc4cccnc4C3)n2)c1 [Example 168-3]
12 | ≤ 4.70 | CNCC(O)COc1cccc(-c2nc(NC3CCOCC3)cc(-c3ccc4c(c3)OCCO4)n2)c1 (stereo not drawn) [Example 657-1a]
13 | 4.70 to 5.00 | CNCC(O)COc1cccc(-c2nc(N[C@@H]3CCOC3)c(C)c(N3CC[C@@H](OC)C3)n2)c1 (stereo partly drawn) [Example 369-1a]
14 | > 5.30 | CNCC(O)COc1cccc(-c2nc(N[C@H]3C[C@@](C)(OC)C3)c(C)c(-c3c(C)noc3C)n2)c1 (stereo partly drawn) [Example 19-3]
15 | 5.00 to 5.30 | CNCC(O)COc1cccc(-c2nc(-c3c(C)noc3C)cc(N3CCN(C(C)=O)[C@@H](C)C3)n2)c1 (stereo partly drawn) [Example 38-1a]
16 | > 5.30 | CNC[C@H](O)COc1ccc(F)c(-c2nc(NC3CCOCC3)c(C)c(-c3c(C)noc3C)n2)c1 [Example 72-3]
17 | 4.70 to 5.00 | CNCC(O)COc1cccc(-c2nc(-c3cncn3C)cc(N(C)C3CCOCC3)n2)c1 (stereo not drawn) [Example 580-1a]
18 | > 5.30 | Cc1noc(C)c1-c1nc(-c2cccc(OCC(O)CN)c2)nc(NC2CCOCC2)c1C (stereo not drawn) [Example 54-1a]
19 | > 5.30 | CNCC(O)COc1cccc(-c2nc(N[C@H]3CCC[C@H]3O)c(C)c(-c3c(C)noc3C)n2)c1 (stereo partly drawn) [Example 218-1a]
20 | 4.70 to 5.00 | CNCC(O)COc1cccc(-c2nc(-c3c(C)noc3C)cc(N3CCNC(C)(C)C3)n2)c1 (stereo not drawn) [Example 36-1a]
21 | 5.00 to 5.30 | CNCC(O)COc1cccc(-c2nc(-c3c(C)noc3C)c(C)c(N3CCn4ccnc4C3)n2)c1 (stereo not drawn) [Example 34-3]
22 | > 5.30 | CNC[C@H](O)COc1ccc(F)c(-c2nc(NCCC(C)(C)OC)c(C)c(-c3c(C)noc3C)n2)c1 [Example 83-3]
23 | > 5.30 | CNCC(O)COc1cccc(-c2nc(-c3c(C)noc3C)cc(N(CCOC)C3CCOCC3)n2)c1 (stereo not drawn) [Example 98-1a]

Row | pIC50 | Structure (SMILES)
24 | 4.70 to 5.00 | CNCC(O)COc1cccc(-c2nc(-c3c(C)noc3C)cc(N3CC[C@H](S(C)(=O)=O)C3)n2)c1 (stereo partly drawn) [Example 69-1a]
25 | > 5.30 | CNCC(O)COc1cccc(-c2nc(-c3scnc3C)cc(N(C)C3CCOCC3)n2)c1 (stereo not drawn) [Example 495-1a]
26 | 5.00 to 5.30 | CNCC(O)COc1cccc(-c2nc(-c3c(C)noc3C)c(C)c(N3CCO[C@@H](CN(C)S(C)(=O)=O)C3)n2)c1 (stereo partly drawn) [Example 150-1a]
27 | > 5.30 | CNCC(O)COc1cc(OC)cc(-c2nc(NC3CCOCC3)c(C)c(-c3c(C)noc3C)n2)c1 (stereo not drawn) [Example 75-1a]
28 | > 5.30 | CNC[C@@H](O)COc1ccc(Cl)c(-c2nc(N[C@@H]3C[C@@H](C)O[C@@H](C)C3)c(Cl)c(-c3c(C)noc3C)n2)c1 [Example 183-3]
29 | > 5.30 | CNC[C@@H](O)COc1ccc(Cl)c(-c2nc(-c3c(C)noc3C)c(C)c(N3Cc4cnn(CC(F)(F)F)c4C3)n2)c1 [Example 265-3]
30 | > 5.30 | CNCC(O)COc1cccc(-c2nc(NC3(C(F)(F)F)CC3)c(C)c(-c3c(C)noc3C)n2)c1 (stereo not drawn) [Example 8-3]
31 | 5.00 to 5.30 | CNCC(O)COc1cc(Cl)cc(-c2nc(-c3ccncc3C3CC3)cc(N(C)C3CCOCC3)n2)c1 (stereo not drawn) [Example 522-1a]
32 | > 5.30 | CNCC(O)COc1cccc(-c2nc(-c3c(C)noc3C)c(C)c(N3CC4(CN(C(=O)OC)C4)C3)n2)c1 (stereo not drawn) [Example 299-1a]
33 | 4.70 to 5.00 | CNCC(O)COc1cccc(-c2nc(-c3c(C)noc3C)cc(N(C)c3cnc(OC)nc3)n2)c1 (stereo not drawn) [Example 51-1a]
34 | > 5.30 | CNCC(O)COc1cccc(-c2nc(-c3c(C)noc3C)c(C)c(N3CCO[C@H](CN(C)C(=O)OC)C3)n2)c1 (stereo partly drawn) [Example 127-1a]
35 | 4.70 to 5.00 | CNCC(O)COc1cccc(-c2nc(N[C@@H]3CCOC3)c(C)c(N3CCC[C@H]4CN(Cc5ccccc5)C[C@H]43)n2)c1 (stereo partly drawn) [Example 378-1a]
36 | 4.70 to 5.00 | CNCC(O)COc1cccc(-c2nc(-c3ccc(C(F)(F)F)nc3)cc(N(C)C3CCOCC3)n2)c1 (stereo not drawn) [Example 613-1a]
37 | > 5.30 | CNCC(O)COc1cc(OC)cc(-c2nc(-c3cnc4cnccn34)cc(N(C)C3CCOCC3)n2)c1 (stereo not drawn) [Example 492-1a]
38 | 4.70 to 5.00 | CNCC(O)COc1cccc(-c2nc(N[C@H]3C[C@@](C)(O)C3)cc(-c3c(C)noc3C)n2)c1 (stereo partly drawn) [Example 67-1a]
39 | > 5.30 | CNCC(O)COc1ccc(Cl)c(-c2nc(NC[C@@H]3CCCO3)c(C)c(-c3c(C)noc3C)n2)c1 (stereo partly drawn) [Example 7-3]
40 | > 5.30 | CNCC(O)COc1cccc(-c2nc(NC3CCN(C4CC4)CC3)c(C)c(-c3c(C)noc3C)n2)c1 (stereo not drawn) [Example 185-1a]
41 | > 5.30 | CCOC(=O)N1CCC2(CC1)CN(c1nc(-c3cc(OC[C@H](O)CNC)ccc3F)nc(-c3c(C)noc3C)c1C)C2 [Example 282-3]
42 | > 5.30 | CNCC(O)COc1cccc(-c2nc(-c3c(C)noc3C)c(C)c(N3Cc4cccnc4C3)n2)c1 (stereo not drawn) [Example 35-3]
43 | 4.70 to 5.00 | CNCC(O)COc1cccc(-c2nc(NC)cc(-c3c(C)noc3C)n2)c1 (stereo not drawn) [Example 27-1a]
44 | > 5.30 | CNCC(O)COc1cccc(-c2nc(-c3ncc(C)n3C)cc(N(C)C3CCOCC3)n2)c1 (stereo not drawn) [Example 491-1a]
45 | > 5.30 | CNCC(O)COc1cccc(-c2nc(N[C@H]3C[C@@](C)(O)C3)c(C)c(-c3c(C)noc3C)n2)c1 (stereo partly drawn) [Example 255-1a]
46 | > 5.30 | CNCC(O)COc1cccc(-c2nc(-c3c(C)noc3C)cc(N(C)C3CCN(C(=O)OC)CC3)n2)c1 (stereo not drawn) [Example 90-1a]

Row | pIC50 | Structure (SMILES)
47 | 5.00 to 5.30 | CNCC(O)COc1cccc(-c2nc(-c3nc(C)c[nH]3)cc(N(C)C3CCOCC3)n2)c1 (stereo not drawn) [Example 521-1a]
48 | > 5.30 | CNCC(O)COc1cccc(-c2nc(N[C@@H]3CCOC3)c(C)c(N3Cc4cccnc4C3)n2)c1 (stereo partly drawn) [Example 394-1a]
49 | 5.00 to 5.30 | CNCC(O)COc1cccc(-c2nc(NC3CCCN(C4COC4)C3)c(C)c(-c3c(C)noc3C)n2)c1 (stereo not drawn) [Example 246-1a]
50 | 5.00 to 5.30 | CNCC(O)COc1cccc(-c2nc(NC[C@H]3COCCN3C(=O)N(C)C)c(C)c(-c3c(C)noc3C)n2)c1 (stereo partly drawn) [Example 258-1a]
51 | > 5.30 | CNCC(O)COc1cccc(-c2nc(-c3c(C)noc3C)cc(N3CCN(C)[C@@H](C)C3)n2)c1 (stereo partly drawn) [Example 93-1a]
52 | 4.70 to 5.00 | CNCC(O)COc1cccc(-c2nc(-c3cncnc3)cc(-c3c(C)noc3C)n2)c1 (stereo not drawn) [Example 8-1a]
53 | > 5.30 | CNCC(O)COc1cccc(-c2nc(OCC3CCOCC3)c(C)c(-c3c(C)noc3C)n2)c1 (stereo not drawn) [Example 182-1a]
54 | 5.00 to 5.30 | CNCC(O)COc1cccc(-c2nc(N[C@H]3CC[C@@H](O)CC3)cc(-c3c(C)noc3C)n2)c1 (stereo partly drawn) [Example 33-1a]
55 | > 5.30 | CNC[C@@H](O)COc1ccc(Cl)c(-c2nc(-c3c(C)noc3C)c(F)c(N3Cc4nccnc4C3)n2)c1 [Example 297-3]
56 | 5.00 to 5.30 | CCN1CCN(c2cc(-c3c(C)noc3C)nc(-c3cccc(OCC(O)CNC)c3)n2)CC1 (stereo not drawn) [Example 20-1a]
57 | > 5.30 | CNC[C@@H](O)COc1ccc(Cl)c(-c2nc(-c3c(C)noc3C)c(C)c(N3Cc4cnc(C5CC5)nc4C3)n2)c1 [Example 259-3]
58 | > 5.30 | CNCC(O)COc1cccc(-c2nc(NC3CCNC[C@H]3F)c(C)c(-c3c(C)noc3C)n2)c1 (stereo partly drawn) [Example 207-1a]
59 | > 5.30 | CNCC(O)COc1cccc(-c2nc(-c3c(C)noc3C)cc(N3CCN(CC(F)F)[C@H](C)C3)n2)c1 (stereo partly drawn) [Example 174-1a]
60 | > 5.30 | CNCC(O)COc1cc(Cl)cc(-c2nc(NC3CCOCC3)c(C)c(-c3c(C)noc3C)n2)c1 (stereo not drawn) [Example 47-1a]
61 | > 5.30 | CNCC(O)COc1cccc(-c2nc(-c3c(C)nn(C(C)C)c3C)cc(N(C)C3CCOCC3)n2)c1 (stereo not drawn) [Example 496-1a]
62 | 4.70 to 5.00 | CNCC(O)COc1cccc(-c2nc(-c3c(C)noc3C)cc(N(C)c3cnc(C)nc3)n2)c1 (stereo not drawn) [Example 61-1a]
63 | 4.70 to 5.00 | CNCC(O)COc1cccc(-c2nc(NC3CCOC3)c(C)c(N3CCN(CC(F)F)C(C)(C)C3)n2)c1 (stereo not drawn) [Example 457-1a]
64 | > 5.30 | CNCC(O)COc1cccc(-c2nc(N[C@H]3CCC[C@@H](O)C3)c(C)c(-c3c(C)noc3C)n2)c1 (stereo partly drawn) [Example 10-3]
65 | > 5.30 | CNC[C@H](O)COc1ccc(Cl)c(-c2nc(N[C@H]3CCN(C4CC4)C[C@H]3F)c(C)c(-c3c(C)noc3C)n2)c1 [Example 43-3]
66 | 4.70 to 5.00 | CNCC(O)COc1cccc(-c2nc(N[C@@H]3CCOC3)c(C)c(-c3cn[nH]c3)n2)c1 (stereo partly drawn) [Example 338-1a]
67 | 4.70 to 5.00 | CNCC(O)COc1cccc(-c2nc(-c3ccncc3)c(C)c(N(C)[C@@H]3CCOC3)n2)c1 (stereo partly drawn) [Example 339-1a]
68 | > 5.30 | CNCC(O)COc1cccc(-c2nc(N[C@@H]3CCOC3)c(C)c(N3CCN(CC(F)F)[C@H](C)C3)n2)c1 (stereo partly drawn) [Example 471-1a]
69 | 4.70 to 5.00 | CNCC(O)COc1cccc(-c2nc(NC3CCOC3)c(C)c(C(=O)NC3CCN(C)CC3)n2)c1 (stereo not drawn) [Example 397-1a]
